Data reported in patent US20040001839A1, “Multimers - isolated molecules comprising epitopes containing sulfated moieties, antibodies to such epitopes, and uses thereof” (priority 2000, published 2004).
No end group written: not given here. *: point of attachment. sulfate = O=S(=O)(O)*

Tests used:
KG-1 cells = assay: AML KG-1 model in NOD/SCID mice; type: in vivo
Experimental: The in vivo mouse model for human AML uses SCID/NOD mice (Jackson Laboratories) inoculated with KG-1 cells derived from a human AML cell line.
In a first experiment, NOD/SCID mice were pretreated with 100 mg/kg CYTOXAN®. Four days post CYTOXAN® injection, KG-1 cells were injected intravenously into the tail vein of six groups of mice. (Table N, Groups 2 and 5-9). One group of mice (Table N, Group 1) was injected with PBS alone (control). [273.][273.]
Beginning 19 days post KG-1 injection mice were treated with: CONY1, Doxorubicin, CONY1-Doxorubicin conjugate, or Mylotarg®. (Mylotarg® is a monoclonal antibody (anti CD33) conjugated chemically to calcheamicin recently approved by the FDA for treatment of AML patients age 60 and over in a first relapse.) Mice were treated once or three times per week for three weeks. One group (group 2) of KG-1 inoculated mice were left untreated. (Table N). Two other groups of mice (groups 3 and 4) were injected with KG-1 cells that were previously incubated with CONY1 or 181-scFv (a negative, non-specific control antibody) in serum free RPMI containing 1% BSA at 4° C. for 1 h. The antibodies were used at a concentration of 0.25 mg scFv/10^8 cells (75 μg/mouse). Before injection into the mice the preincubated KG-1 cells were washed and resuspended in RPMI. The KG-1 cells in RPMI were inoculated into mice at a concentration of 75 μg scFv/0.2 ml RPMI per mouse. Group 3 mice were inoculated with KG-1+CONY1, and group 4 mice were inoculated with KG-1+181-scFv. (Table N). This treatment (group 3 and 4) was carried out one day after the inoculation of groups 1-2 and 5-9, i.e., at five days after CYTOXAN injection.
Mice were sacrificed from 60 to 65 days post cell injection. Bone marrow and blood samples were analyzed by flow cytometry using mouse anti human CD34-FITC (IQP 144F) (or anti CD44-FITC (MCA89F, Serotec)) and Y1-Biotin/SAV-PE. Mouse IgG1-FITC (IQP 191-F) was used as an isotype control, and mouse IgG2a-FITC (MCA929F, Serotec) was used as a negative control. Flow cytometry was performed using FACSCalibur system and CellQwest software, Becton Dickinson.
An additional experiment was performed in which SCID-NOD mice were i.v. injected with 3×10^4 MOLT-4 cells/mouse 5 days post treatment with cyclophosphamide. Anti-cancer agents or PBS were injected IV three times/week, from day 14 onward. On day 60, blood was drawn, then the animals were sacrificed. Bone marrow was extracted and analyzed by FACS analysis using a commercially available antiCD44 antibody for the detection of MOLT-4 cells in the mice bone marrow cell population.

[1] = test system: scFv Y1 binding to glycocalicin; assay: Competitive binding ELISA of sulfated peptides (scFv Y1 binding to immobilized glycocalicin); design: species or system human; conditions: peptide 1, 10 and 100 μM, preincubated 10 minutes with scFv Y1
Experimental: A competitive binding ELISA assay was used to assess the importance of the presence and position of sulfated tyrosines to the binding of peptides to Y1.
Glycocalicin was immobilized on a Maxisorb plate. scFv Y1 was preincubated with a peptide of interest for 10 minutes at three different concentrations (1, 10 and 100 μM) in order to observe a dose response. (Table 12). After preincubation, the mixture (Y1+peptide) was added to the plate, and binding of scFv Y1 was assessed using polyclonal rabbit anti-VL, which recognizes the VL chain of scFv Y1, followed by anti-rabbit-HRP. In mixtures in which the peptide bound to scFv Y1, a decrease in the binding of scFv Y1 to glycocalicin compared to control binding was observed.

COc1cccc2c1C(=O)c1c(O)c3c(c(O)c1C2=O)C[C@@](O)(C(=O)CO)C[C@@H]3O[C@H]1C[C@H](N)[C@H](O)[C@H](C)O1 [Doxorubicin]
percentage of KG-1 cells in bone marrow compared to group 2 (untreated) (KG-1 cells; 0.1 mg/kg free Doxorubicin, 3 times per week (group 6)): statistically significant (p<0.05) lower percentage of KG-1 cells | mice that died within three weeks after treatment initiation (KG-1 cells; 5 mg/kg free Doxorubicin, 1 time per week (group 7)): Nine out of 10 | reduction in the number of tumor cells in the bone marrow (KG-1 cells; additional experiment, day 60, Doxorubicin alone or as conjugate 75 μg/mouse): 50%

QATEYEY*LDY*DFLPETE (QATEYEY(sulfate)LDY(sulfate)DFLPETE) [P-YY*Y*, PSGL-1 n-terminus peptide, sulfated]
inhibition of Y1 binding to glycocalicin [1]: best inhibitors

Mylotarg: monoclonal antibody (anti CD33) conjugated chemically to calcheamicin
KG-1 cells in bone marrow (KG-1 cells; 0.2 mg/kg, 1 time per week (group 9)): free of KG 1 cells | prevalence of bone marrow cancer, day 60 (KG-1 cells; additional experiment, 7 μg/mouse, once a week): completely inhibited

GDEGDTDLY*DY*Y*PEEDTE (GDEGDTDLY(sulfate)DY(sulfate)Y(sulfate)PEEDTE) [G-Y*Y*Y*, GPIbα peptide, sulfated]
inhibition of Y1 binding to glycocalicin [1]: did inhibit
